Values of other authors in US20240207252A1, “AEROSOL-FORMING SUBSTRATE AND AEROSOL-GENERATING SYSTEM” (SHENZHEN FIRST UNION TECHNOLOGY CO., LTD., priority 2021, published 2024).

Conditions: single oral administration

Tmax: less than 1 h
t1/2: less than 1 h
SMILES: COC(=O)[C@@H]1[C@H]2C[C@H]3c4[nH]c5ccccc5c4CCN3C[C@@H]2CC[C@@H]1O [yohimbine, methyl 17alpha-hydroxyyohimban-16alpha-carboxylate]
